Assay results as given in ChEMBL document CHEMBL3351442, “Synthesis and antiproliferative evaluation of 2-hydroxylated (E)-stilbenes” (Bioorg Med Chem Lett, 2014).

Tests used:
Assay type in all cases: functional, cell-based
MGC-803 = assay: Antiproliferative activity against human MGC803 cells by MTT assay
[1] = Antiproliferative activity against human MDA468 cells by MTT assay; settings: MDA-MB-468
HT-29 = assay: Antiproliferative activity against human HT-29 cells by MTT assay
[2] = Antiproliferative activity against human COLO205 cells by MTT assay; settings: COLO 205

Row | SMILES | IC50 (MGC-803) | IC50 [1] | IC50 (HT-29) | IC50 [2]
1 | N#Cc1ccc(/C=C/c2ccccc2O)cc1 | 3.1 µM | – | – | –
2 | COc1cccc(/C=C\c2cc(OC)c(OC)c(OC)c2)c1O | 1.1 µM | 2.6 µM | – | –
3 | COc1cc(/C=C/c2cc(Br)ccc2O)cc(OC)c1 | 3.3 µM | 6.1 µM | 9.5 µM | 16.4 µM
4 | COc1ccc(/C=C/c2cccc(OC)c2O)cc1 | – | – | – | 20.2 µM
5 | Cc1cc(C)cc(/C=C/c2cc(Br)ccc2O)c1 | 5 µM | 7.2 µM | 13.3 µM | –
6 | COc1cc(/C=C/c2cc(Br)ccc2O)cc(OC)c1OC | 4.5 µM | 14.2 µM | 18.5 µM | –
7 | Oc1ccc(/C=C/c2cc(O)cc(O)c2)cc1 [RESVERATROL] | 42 µM | 45.2 µM | 87.2 µM | 23.5 µM
8 | COc1cc(/C=C/c2cc([N+](=O)[O-])ccc2O)cc(OC)c1OC | 14.7 µM | – | – | –
9 | COc1ccc(/C=C/c2cccc(OC)c2O)c(OC)c1 | – | 5.1 µM | – | –
10 | COc1cc(/C=C/c2cc([N+](=O)[O-])ccc2O)cc(OC)c1 | 10.6 µM | – | 12.6 µM | –
11 | COc1cccc(/C=C/c2ccc(O)cc2)c1O | – | 6.9 µM | – | –
12 | Oc1ccccc1/C=C/c1ccccc1 | – | 19.3 µM | – | –
13 | Oc1ccc(/C=C/c2cc(Br)ccc2O)cc1 | – | 3.5 µM | 26.7 µM | –
14 | COc1cc(/C=C/c2ccccc2O)cc(OC)c1 | 6.3 µM | 12.6 µM | 26.2 µM | –
15 | COc1ccc(/C=C/c2cc(Br)ccc2O)c(OC)c1 | 3.5 µM | 3.7 µM | 10 µM | –
16 | Oc1ccccc1/C=C/c1ccc(Br)cc1 | – | 7.4 µM | 14.4 µM | 21.1 µM
17 | Cc1ccc(/C=C/c2ccccc2O)cc1 | – | 21.9 µM | 22.9 µM | –
18 | COc1ccc(/C=C/c2cc(OC)c(OC)c(OC)c2)c(O)c1 | 0.035 µM | 5.3 µM | 9.7 µM | 5.3 µM
19 | Oc1cc(O)cc(/C=C/c2ccccc2O)c1 | – | – | 26.2 µM | –
20 | Oc1ccc(/C=C/c2ccccc2O)cc1 | – | – | 33.5 µM | –
